These results are taken from patent US7781486B2, “Punctual stimulation therapy” (priority 2003, dated 2010).

The data set has as its system pain (VAS scale) in patients. Put plainly: Punctual stimulation on both ears with simultaneous intravenous infusion of D-phenylalanine solution; pain reduction in patient case reports. It counts as in vivo, human. The source says: Very good relief of existing pain can be achieved by means of punctual stimulation, in which electrical current is supplied by way of needle electrodes stuck into the skin, whereby these needle electrodes are placed, in particular, at specifically sensitive points of an outer ear, in the case of the predominant number of patients treated with such stimulation.
On each of three consecutive days, punctual stimulation on both ears, with simultaneous intravenous infusion of a substance that inhibits the enzymatic decomposition of endogenous opioid neuropeptides, was carried out. Afterwards, punctual stimulation was carried out without infusion for the four subsequent days, by means of a small device worn by the patient, to supply power to needle electrodes that are stuck into the skin on one ear. This sequence was repeated several times, in coordination with the patient's need for pain reduction. In the case of punctual stimulations carried out with simultaneous infusion, electrical current was supplied to needle electrodes that were stuck into sensitive points of both ears. A sterile aqueous solution containing 20 g/L D-phenylalanine was administered as the infusion, whereby a total amount of D-phenylalanine of 200 to 300 mg/kilogram of body weight was administered during every treatment procedure. On the first days of the three-day sequences, in each instance, the infusion was started at least 10 min before the punctual stimulation. The flow velocity of the infusion was selected in accordance with an infusion period of 2.5 to 5 h.
Admission to clinic. Punctual stimulation carried out without infusion, by means of power supply to needle electrodes that are stuck into one ear, over a period of four days. Pain reduction achieved in this manner. Subsequently, punctual stimulation by means of power supply to needle electrodes that are stuck in both ears, and simultaneous intravenous infusion of an aqueous solution containing 15 g/L D-phenylalanine, in an amount of 250 mg/kg of body weight. An anti-emetic was also added to the solution. Duration of infusion about 3 h. During the course of this treatment, pain reduction all the way to freedom from pain (VAS-0). After 8 days, discharge from the clinic—free of symptoms, no vomiting, no nausea, no medication. At discharge, application of a device for punctual stimulation on one ear, without infusion, as mentioned above, for four days. Freedom from symptoms remains maintained during this stimulation period. On the following days, slight pain in the abdominal region, in individual instances. Three days after completion of the prior stimulation, again application of a device for a stimulation lasting four days—immediately clear relief. After this stimulation, again increase in pain, but tolerable without medication. After another three days, again application of such a device—free of symptoms. After removal of the device, again slight increase in pain, whereby the number of pain attacks and their intensity has decreased in comparison with previously. After several days, again a device applied for stimulation on one ear, lasting for four days—free of symptoms. After removal of the device, slow increase in pain to VAS-3-4. Ten days after removal of the device, again punctual stimulation on two ears, with intravenous infusion, as explained above. Pain reduction to VAS-0. […] Subsequently slow increase in pain up to maximum VAS-4. Two weeks after punctual stimulation on both ears, again application of a device for four days of stimulation on one ear without infusion—free of symptoms during stimulation. Another two weeks later, again application of such a device—free of symptoms during stimulation. Afterwards, more severe pain again in paraumbilical region, in individual instances. Again, application of a device as mentioned—free from symptoms during the stimulation. Later, sudden increase in pain. Therefore one week later, again punctual stimulation on both ears, with infusion. VAS-0. […]

For the molecule `N[C@H](Cc1ccccc1)C(=O)O` [D-phenylalanine], the “dulling of sensory system” value (after first treatment, 20 g/L, 300 mg/kg i.v.) was “without dulling of the sensory system”. For the same molecule, the “duration of complete freedom from pain after treatment” value (after second treatment with infusion) came to 48 h. Also, for the setting “after the 48 h following second treatment with infusion”, the “maximum pain (VAS) on slow increase after treatment” value was not above 4 VAS. For the same molecule, the “pain (VAS) on increase after the pain-free period” value (after three pain-free days) worked out at 4 VAS. Also, the pain after treatment entry is, setting by setting: (ankle pain VAS-10, back pain, first treatment: 15 g/L, 250 mg/kg i.v., 3 h, stimulation on both ears) “complete freedom from pain”; (second treatment on both ears with infusion) “Complete freedom from pain”; (second treatment with infusion, from VAS-6) “complete freedom from pain achieved”. The “pain reduction during each treatment procedure” value (carcinoma with generalized metastases, 20 g/L D-phenylalanine i.v., 200 to 300 mg/kg, infusion 2.5 to 5 h, with punctual stimulation on both ears, three consecutive days) is listed as “pain reduction, which went all the way to freedom from pain”. Further, the “pain (VAS) during treatment” value (lumbar ischialgia, from VAS 9.5, 20 g/L, 300 mg/kg i.v., 3 h, stimulation on both ears) is 0 VAS.
